Results from patent US6011041A, “Use of anhydrovinblastine” (priority 1996, dated 2000).
Where a name gives a salt, the structure may show the parent alone. Read-outs that look alike come from different tables or passages of the source.

Test system: P388 murine leukemia cells
Assay: MTT dose response cytotoxicity, P388 (Table 1, FIG. 5)
Format: cell-based
Details: Mus musculus, read-out: DRUG IC50
Experimental: Cytotoxicity experiments on AHVB were performed as direct comparisons with vincristine and navelbine in order to assess its inherent antineoplastic profile against a variety of tumour cell types relative to other relevant vinca alkaloids. The cytotoxicity of AHVB was investigated in vitro against a panel of tumour cell lines of varying lineage in order to determine the specificity of its antitumour activity with respect to cell type. The tumour lines studied were P388 lymphocytic leukemia (a murine lymphocytic leukemia), Noble (Nb) rat U17 lymphoma, MCF7 human breast carcinoma, H460 human non-small cell lung carcinoma, K562 human erythrokeukemia and LS180 human colon carcinoma based on established NCI in vitro new anticancer drug cytotoxicity screening protocols.
Standard dose response cytotoxicity assays (R. Mosmass, J. Immunol. Meth., 65:55-64, 1983) were utilized to determine the IC50 (drug concentration required to induce 50% inhibition of tumour cell growth) for vincristine, navelbine and AHVB. The indicated cell lines were obtained from either the ATCC or NCI tumor repository and were cultured in tissue culture media by standard techniques well known to those skilled in the art, prior to dilution to a defined cell concentration required for the studies in 96 well plates.
A wide range of drug concentrations were exposed to tumour cells growing at log phase in 96-well microtitre plates. Cell concentrations depended on the cell line as well as the length of time to be cultured. Typically, P388 cells were plated at a concentration of 30,000, 2,000 and 750 cells per well for studies lasting 1, 3 and 7 days, respectively MCF7 cells were plated at a concentration of 7,000 and 1,500 cells per well for studies lasting 3 and 7 days, respectively. H460 cells were plated at a concentration of 2,500 and 1,000 cells per well for studies lasting 3 and 7 days, respectively. K562 cells were plated at a concentration of 1,500 and 10,000 cells per well for studies lasting 1 and 3 days, respectively. LS180 cells were plated at a concentration of 5,000 and […] cells per well for studies lasting 3 and 7 days, respectively. After plating all cell lines were incubated (CO2 incubator at 37° C., 5% CO2) for 24 hours prior to addition of the cytotoxic agent (See Table 1). Subsequently the plates were incubated for the indicated time period. At specified times, cells were washed and subsequently exposed to the dye inclusion marker MTT (3-(4,5-dimethylthiazol-2-yl)-2,5diphenyl tetrazolium), which accumulated into viable cells. MTT was added to the cells at a final concentration of 50 μg per well. After a 4 hour incubation, the cells were washed free of media and unreacted MTT, prior to addition of DMSO which was required to solubilize the insoluble formazan precipitate that formed in viable cells. After the sample was mixed through repeated pipetting, the colored product was measured using a plate reader operating at 570 nm. The absorbance values obtained for cells cultured in the absence of drug was assumed to represent 100% viability. Experiments were repeated to substantiate any differences noted between […] and other vinca alkaloids.
A cytotoxicity curve was generated to estimate the IC50 of vincristine, navelbine and AHVB in the murine P388 cell line (see FIG. 5). In this study, P388 cells derived from an ascitic tumor grown in BDF1 were first separated from red cells employing Ficoll-Paque. Isolated while cells were washed twice then placed in serum containing tissue culture media (1×10^5 cells per ml of RPMI 1640 supplemented with L-glutamine, penicillin, streptomycin and 10% fetal bovine serum) and cultured for 2 hours. All non adherent cells were collected and that cell population was defined as P388 cells and used for cytotoxicity assays 24 hours later. Cytotoxicity assays were performed as described in the notes to Table 1. The drug concentrations used are indicated on the X-axis. […]

[1] = 24 h, P388, exposure time 1 day
[2] = 72 h, P388, exposure time 3 days
[3] = 168 h, P388, exposure time 7 days

`CCC1=CC2CN(CCc3c([nH]c4ccccc34)C(C(=O)OC)(c3cc4c(cc3OC)N(C)C3C(O)(C(=O)OC)C(OC(C)=O)C5(CC)C=CCN6CCC43C65)C2)C1` (stereo not drawn) [AHVB, 3',4'-anhydrovinblastine] showed an IC50 (P388, 24 h) of 140 ± 53 nM, an IC50 (P388, 72 h) of 15 ± 8.7 nM and an IC50 (P388, 168 h) of 20 nM.

Work on `CCC1=C[C@@H]2CN(C1)Cc1c([nH]c3ccccc13)[C@@](C(=O)OC)(c1cc3c(cc1OC)N(C)[C@H]1[C@@](O)(C(=O)OC)[C@H](OC(C)=O)[C@]4(CC)C=CCN5CC[C@]31[C@@H]54)C2` [navelbine, 3',4'-didehydro-4'-deoxy-C'-norvincaleukoblastine-di-L-tartrate] yielded an IC50 [1] of 20 ± 10 nM, an IC50 [2] of 0.7 ± 0.3 nM and an IC50 [3] of 2.5 nM.

In the case of `CC[C@]1(O)C[C@H]2CN(CCc3c([nH]c4ccccc34)[C@@](C(=O)OC)(c3cc4c(cc3OC)N(C=O)[C@H]3[C@@](O)(C(=O)OC)[C@H](OC(C)=O)[C@]5(CC)C=CCN6CC[C@]43[C@@H]65)C2)C1` [vincristine, Sulfate of 22-oxovincaleukoblastine], the IC50 [1] is reported as 11 ± 3.6 nM, the IC50 [2] is reported as 1 ± 0.3 nM and the IC50 [3] is reported as 2 nM.
